Experiments:
[1] = target: T1, human amylin receptor (hAmyR3) (Homo sapiens, UniProt O60896+P30988); assay: Human amylin receptor in vitro potency assay (CRE-luciferase reporter, BHK cells); format: cell-based; details: Table 4a; BHK hAmyR3/CRE-Luc cells, 3 hours; read-out: Human AmyR3 potency [EC50 (pM)];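 further: BHK cells expressing human calcitonin receptor plus RAMP3 (amylin-3 receptor) with a CRE-luciferase reporter, agonist activity read as luminescence from cAMP-driven transcription, 7-point serial dilutions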
T1 construct: host or cells: BHK cells (Hollex-1 line: human calcitonin receptor (a) + CRE-Luc), further transfected with human RAMP3
T1 sequence (P30988 25-474): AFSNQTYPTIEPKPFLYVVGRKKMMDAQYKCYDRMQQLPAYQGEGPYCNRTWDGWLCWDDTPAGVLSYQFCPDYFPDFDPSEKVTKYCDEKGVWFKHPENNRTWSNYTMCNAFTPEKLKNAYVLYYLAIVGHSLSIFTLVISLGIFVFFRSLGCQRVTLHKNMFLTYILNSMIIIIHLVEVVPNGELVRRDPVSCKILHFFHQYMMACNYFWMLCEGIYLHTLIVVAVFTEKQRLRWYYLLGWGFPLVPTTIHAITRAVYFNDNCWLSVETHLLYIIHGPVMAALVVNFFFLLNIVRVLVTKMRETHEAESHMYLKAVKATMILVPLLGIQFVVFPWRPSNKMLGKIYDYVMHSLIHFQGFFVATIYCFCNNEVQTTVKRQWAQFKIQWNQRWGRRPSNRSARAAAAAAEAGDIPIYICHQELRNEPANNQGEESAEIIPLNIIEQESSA
T1 sequence (O60896 24-148): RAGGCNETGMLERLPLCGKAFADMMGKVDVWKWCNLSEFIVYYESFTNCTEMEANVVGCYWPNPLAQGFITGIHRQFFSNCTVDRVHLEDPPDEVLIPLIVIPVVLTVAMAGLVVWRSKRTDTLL

human GLP-1 receptor = target: T2, human GLP-1 receptor (Homo sapiens, UniProt P43220); assay: Human GLP-1 receptor in vitro potency assay (CRE-luciferase reporter, BHK cells); format: cell-based; details: Table 4a; BHK cells expressing human GLP-1R, CRE-Luc, 3 hours; read-out: Human GLP-1R potency [EC50 (pM)]
T2 construct: expressed in transfected cells; host or cells: BHK (Baby Hamster Kidney) cells, clone BHK 467-12A KZ-10, stably transfected, with CRE-luciferase reporter
T2 sequence (P43220 24-463): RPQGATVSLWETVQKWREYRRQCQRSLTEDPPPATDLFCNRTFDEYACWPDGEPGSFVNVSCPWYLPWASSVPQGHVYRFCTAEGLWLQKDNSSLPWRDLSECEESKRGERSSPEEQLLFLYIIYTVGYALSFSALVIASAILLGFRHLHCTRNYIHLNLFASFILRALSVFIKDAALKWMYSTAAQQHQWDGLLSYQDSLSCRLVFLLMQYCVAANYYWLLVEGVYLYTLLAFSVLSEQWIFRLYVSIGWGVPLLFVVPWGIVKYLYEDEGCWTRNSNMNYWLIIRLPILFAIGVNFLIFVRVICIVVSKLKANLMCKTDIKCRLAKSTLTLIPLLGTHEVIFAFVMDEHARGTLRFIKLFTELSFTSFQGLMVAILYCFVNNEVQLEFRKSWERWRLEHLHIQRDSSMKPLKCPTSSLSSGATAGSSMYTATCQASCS
Protocol: It is thus possible to measure GLP-1 receptor activity using a CRE-luciferase reporter gene introduced into Baby Hamster Kidney (BHK) cells co-expressing the GLP-1 receptor.
Cells were aliquoted and stored at -180° C. until use.
Plates were sealed and incubated at room temperature with gentle shaking for 30 minutes while protected from light. Luminescence was detected on a luminescence plate reader e.g. a Synergy 2 (BioTek).

Row | EC50 [1] | EC50 (human GLP-1 receptor) | SMILES
1 | 43.9 pM | 84.5 pM | CC[C@H](C)[C@H](NC(=O)[C@H](Cc1ccccc1)NC(=O)[C@H](CCC(=O)O)NC(=O)[C@H](CCCCNC(=O)COCCOCCNC(=O)COCCOCCNC(=O)CC[C@H](NC(=O)CCCCCCCCCCCCCCC(=O)O)C(=O)O)NC(=O)[C@H](C)NC(=O)[C@H](C)NC(=O)[C@H](CCC(N)=O)NC(=O)CNC(=O)[C@H](CCC(=O)O)NC(=O)[C@H](CC(C)C)NC(=O)[C@H](Cc1ccc(O)cc1)NC(=O)[C@H](CO)NC(=O)[C@H](CO)NC(=O)[C@@H](NC(=O)[C@H](CC(=O)O)NC(=O)[C@H](CO)NC(=O)[C@@H](NC(=O)[C@H](Cc1ccccc1)NC(=O)[C@@H](NC(=O)CNC(=O)[C@H](CCC(=O)O)NC(=O)C(C)(C)NC(=O)[C@@H](N)Cc1c[nH]cn1)[C@@H](C)O)[C@@H](C)O)C(C)C)C(=O)N[C@@H](C)C(=O)N[C@@H](Cc1c[nH]c2ccccc12)C(=O)N[C@@H](CC(C)C)C(=O)N[C@H](C(=O)N[C@@H](CCCNC(=N)N)C(=O)NCC(=O)N[C@@H](CCCCNC(=O)COCCOCCNC(=O)COCCOCCNC(=O)CC[C@H](NC(=O)CCCCCCCCCCCCCCC(=O)O)C(=O)O)C(=O)NCC(=O)NCC(=O)NCC(=O)N[C@@H](CCC(=O)O)C(=O)N[C@@H](C)C(=O)N[C@@H](CO)C(=O)N[C@@H](CCC(=O)O)C(=O)N[C@@H](CC(C)C)C(=O)N[C@@H](CO)C(=O)N[C@H](C(=O)N[C@@H](C)C(=O)N[C@@H](C)C(=O)N[C@@H](CC(C)C)C(=O)NCC(=O)N[C@@H](CCCNC(=N)N)C(=O)N[C@@H](CC(C)C)C(=O)N[C@@H](CO)C(=O)N[C@@H](C)C(=O)N[C@@H](CCC(=O)O)C(=O)N[C@@H](CC(C)C)C(=O)N[C@@H](Cc1c[nH]cn1)C(=O)N[C@@H](CCC(=O)O)C(=O)N[C@@H](CC(C)C)C(=O)N[C@@H](C)C(=O)N[C@H](C(=O)N[C@@H](CC(C)C)C(=O)N1CCC[C@H]1C(=O)N[C@@H](CCCNC(=N)N)C(=O)N[C@H](C(=O)N[C@@H](CCC(=O)O)C(=O)N[C@H](C(=O)NCC(=O)N[C@@H](CO)C(=O)NCC(=O)N[C@@H](CO)C(=O)N1CCC[C@H]1C(N)=O)[C@@H](C)O)[C@@H](C)O)[C@@H](C)O)[C@@H](C)O)C(C)C [Compound 0075]
2 | 30.8 pM | 1.1 pM | CC[C@H](C)[C@H](NC(=O)[C@H](Cc1ccccc1)NC(=O)[C@H](CCCCNC(=O)COCCOCCNC(=O)COCCOCCNC(=O)CC[C@H](NC(=O)CCCCCCCCCCCCCCC(=O)O)C(=O)O)NC(=O)[C@H](CCCNC(=N)N)NC(=O)[C@H](C)NC(=O)[C@H](C)NC(=O)[C@H](CCC(N)=O)NC(=O)[C@H](CCC(=O)O)NC(=O)[C@H](CCC(=O)O)NC(=O)[C@H](CC(C)C)NC(=O)[C@H](Cc1ccc(O)cc1)NC(=O)[C@H](CO)NC(=O)[C@H](CO)NC(=O)[C@@H](NC(=O)[C@H](CC(=O)O)NC(=O)[C@H](CO)NC(=O)[C@@H](NC(=O)[C@H](Cc1ccccc1)NC(=O)[C@@H](NC(=O)CNC(=O)[C@H](CCC(=O)O)NC(=O)C(C)(C)NC(=O)[C@@H](N)Cc1c[nH]cn1)[C@@H](C)O)[C@@H](C)O)C(C)C)C(=O)N[C@@H](CCC(=O)O)C(=O)N[C@@H](Cc1c[nH]c2ccccc12)C(=O)N[C@@H](CC(C)C)C(=O)N[C@H](C(=O)N[C@@H](CCCNC(=N)N)C(=O)NCC(=O)N[C@@H](CCCCNC(=O)COCCOCCNC(=O)COCCOCCNC(=O)CC[C@H](NC(=O)CCCCCCCCCCCCCCC(=O)O)C(=O)O)C(=O)NCC(=O)N[C@@H](CCC(=O)O)C(=O)NCC(=O)N[C@@H](CCC(N)=O)C(=O)N[C@@H](CCC(=O)O)C(=O)N1CCC[C@H]1C(=O)NCC(=O)NCC(=O)N[C@@H](C)C(=O)N[C@@H](CO)C(=O)N[C@@H](CCC(=O)O)C(=O)N[C@@H](CC(C)C)C(=O)N[C@@H](CO)C(=O)N[C@H](C(=O)N[C@@H](C)C(=O)N[C@@H](C)C(=O)N[C@@H](CC(C)C)C(=O)NCC(=O)N[C@@H](CCCNC(=N)N)C(=O)N[C@@H](CC(C)C)C(=O)N[C@@H](CO)C(=O)N[C@@H](C)C(=O)N[C@@H](CCC(=O)O)C(=O)N[C@@H](CC(C)C)C(=O)N[C@@H](Cc1c[nH]cn1)C(=O)N[C@@H](CCC(=O)O)C(=O)N[C@@H](CC(C)C)C(=O)N[C@@H](C)C(=O)N[C@H](C(=O)N[C@@H](CC(C)C)C(=O)N1CCC[C@H]1C(=O)N[C@@H](CCCNC(=N)N)C(=O)N[C@H](C(=O)N[C@@H](CCC(=O)O)C(=O)N[C@H](C(=O)NCC(=O)N[C@@H](CO)C(=O)NCC(=O)N[C@@H](CO)C(=O)N1CCC[C@H]1C(N)=O)[C@@H](C)O)[C@@H](C)O)[C@@H](C)O)[C@@H](C)O)C(C)C [Compound 0105]
3 | 24.4 pM | 27.9 pM | CC[C@H](C)[C@H](NC(=O)[C@H](Cc1ccccc1)NC(=O)[C@H](CCC(=O)O)NC(=O)[C@H](CCCNC(=N)N)NC(=O)[C@H](C)NC(=O)[C@H](C)NC(=O)[C@H](CCC(N)=O)NC(=O)[C@H](CCC(=O)O)NC(=O)[C@H](CCC(=O)O)NC(=O)[C@H](CC(C)C)NC(=O)[C@H](Cc1ccc(O)cc1)NC(=O)[C@H](CO)NC(=O)[C@H](CO)NC(=O)[C@@H](NC(=O)[C@H](CC(=O)O)NC(=O)[C@H](CO)NC(=O)[C@@H](NC(=O)[C@H](Cc1ccccc1)NC(=O)[C@@H](NC(=O)CNC(=O)[C@H](CCC(=O)O)NC(=O)C(C)(C)NC(=O)CCc1c[nH]cn1)[C@@H](C)O)[C@@H](C)O)C(C)C)C(=O)N[C@@H](C)C(=O)N[C@@H](Cc1c[nH]c2ccccc12)C(=O)N[C@@H](CC(C)C)C(=O)N[C@H](C(=O)N[C@@H](CCCNC(=N)N)C(=O)NCC(=O)N[C@@H](CCCNC(=N)N)C(=O)N[C@@H](CCCCNC(=O)CCCS(=O)(=O)NC(=O)CCCCCCCCCCCCCCCCc1nnn[nH]1)C(=O)N[C@@H](CCC(=O)O)C(=O)N[C@@H](C)C(=O)N[C@@H](CO)C(=O)N[C@@H](CCC(=O)O)C(=O)N[C@@H](CC(C)C)C(=O)N[C@@H](CO)C(=O)N[C@H](C(=O)N[C@@H](C)C(=O)N[C@@H](C)C(=O)N[C@@H](CC(C)C)C(=O)NCC(=O)N[C@@H](CCCNC(=N)N)C(=O)N[C@@H](CC(C)C)C(=O)N[C@@H](CO)C(=O)N[C@@H](C)C(=O)N[C@@H](CCC(=O)O)C(=O)N[C@@H](CC(C)C)C(=O)N[C@@H](Cc1c[nH]cn1)C(=O)N[C@@H](CCC(=O)O)C(=O)N[C@@H](CC(C)C)C(=O)N[C@@H](C)C(=O)N[C@H](C(=O)N[C@@H](CC(C)C)C(=O)N1CCC[C@H]1C(=O)N[C@@H](CCCNC(=N)N)C(=O)N[C@H](C(=O)N[C@@H](CCC(=O)O)C(=O)N[C@H](C(=O)NCC(=O)N[C@@H](CO)C(=O)NCC(=O)N[C@@H](CO)C(=O)N1CCC[C@H]1C(N)=O)[C@@H](C)O)[C@@H](C)O)[C@@H](C)O)[C@@H](C)O)C(C)C [Compound 0124]
4 | 8.5 pM | 6.3 pM | CC[C@H](C)[C@H](NC(=O)[C@H](Cc1ccccc1)NC(=O)[C@H](CCC(=O)O)NC(=O)[C@H](CCCNC(=N)N)NC(=O)[C@H](C)NC(=O)[C@H](C)NC(=O)[C@H](CCC(N)=O)NC(=O)[C@H](CCC(=O)O)NC(=O)[C@H](CCC(=O)O)NC(=O)[C@H](CC(C)C)NC(=O)[C@H](Cc1ccc(O)cc1)NC(=O)[C@H](CO)NC(=O)[C@H](CO)NC(=O)[C@H](CCCCNC(=O)COCCOCCNC(=O)COCCOCCNC(=O)CC[C@H](NC(=O)[C@H]1CC[C@H](CNC(=O)CCCCCCCCCCCCCCCCCCC(=O)O)CC1)C(=O)O)NC(=O)[C@H](CC(=O)O)NC(=O)[C@H](CO)NC(=O)[C@@H](NC(=O)[C@H](Cc1ccccc1)NC(=O)[C@@H](NC(=O)CNC(=O)[C@H](CCC(=O)O)NC(=O)C(C)(C)NC(=O)[C@@H](N)Cc1c[nH]cn1)[C@@H](C)O)[C@@H](C)O)C(=O)N[C@@H](C)C(=O)N[C@@H](Cc1c[nH]c2ccccc12)C(=O)N[C@@H](CC(C)C)C(=O)N[C@H](C(=O)N[C@@H](CCCNC(=N)N)C(=O)NCC(=O)N[C@@H](CCCNC(=N)N)C(=O)NCC(=O)NCC(=O)NCC(=O)NCC(=O)N[C@@H](CCC(=O)O)C(=O)N[C@@H](C)C(=O)N[C@@H](CO)C(=O)N[C@@H](CCC(=O)O)C(=O)N[C@@H](CC(C)C)C(=O)N[C@@H](CO)C(=O)N[C@H](C(=O)N[C@@H](C)C(=O)N[C@@H](C)C(=O)N[C@@H](CC(C)C)C(=O)NCC(=O)N[C@@H](CCCNC(=N)N)C(=O)N[C@@H](CC(C)C)C(=O)N[C@@H](CO)C(=O)N[C@@H](C)C(=O)N[C@@H](CCC(=O)O)C(=O)N[C@@H](CC(C)C)C(=O)N[C@@H](Cc1c[nH]cn1)C(=O)N[C@@H](CCC(=O)O)C(=O)N[C@@H](CC(C)C)C(=O)N[C@@H](C)C(=O)N[C@H](C(=O)N[C@@H](CC(C)C)C(=O)N1CCC[C@H]1C(=O)N[C@@H](CCCNC(=N)N)C(=O)N[C@H](C(=O)N[C@@H](CCC(=O)O)C(=O)N[C@H](C(=O)NCC(=O)N[C@@H](CO)C(=O)NCC(=O)N[C@@H](CO)C(=O)N1CCC[C@H]1C(N)=O)[C@@H](C)O)[C@@H](C)O)[C@@H](C)O)[C@@H](C)O)C(C)C [Compound 0266]

Source: patent US20230331803A1, “CO-AGONISTS OF THE GLP-1 AND AMYLIN RECEPTORS” (priority 2020, published 2023)
